Data set [1] concerns E. cloacae. As to the method: (§1) The bacterial isolates were acquired from ATCC or the Canadian Ward Surveillance (CANWARD) study ([56]). CANWARD isolates were collected from infected patients admitted to participating medical centers across Canada.
(§2) The antibiotic or compound was serially diluted 2-fold in CAMHB on a 96-well plate and was incubated with equal volumes of bacterial inoculum overnight at 37°C. Wells containing only media were used as negative controls, and wells containing only bacteria were used as positive controls. Antibacterial activity was measured by the MIC, or the lowest concentration of agent required to inhibit visible bacterial growth. Turbidity was confirmed with a Molecular Devices (United States) EMax Plus microplate reader at a wavelength of 590 nm.

Data set [2] has as its system K. pneumoniae. As to the method: as §1, §2
Data set [3] concerns P. aeruginosa. As to the method: as §1, §2
For data set [4], the system named is A. baumannii. The data set is classed as cell-based, Acinetobacter baumannii.
Experimental: Gram-negative and Gram-positive bacterial isolates were grown in lysogeny broth (LB) and brain heart infusion, respectively, overnight in a shaking incubator at 250 rpm and at 37°C.
The antibacterial activity of the antibiotics and compounds was assessed using the broth microdilution assay in accordance with Clinical Laboratory Standards Institute (CLSI) guidelines ([36]), and by following a previously described protocol ([27][–][29], [54], [55]). Bacterial culture grown overnight was diluted in saline to 0.5 McFarland turbidity and was further diluted 1:50 in CAMHB to attain a final concentration of 5 × 10^5 colony-forming units (cfu)/mL for inoculation. The antibiotic or compound was serially diluted 2-fold in CAMHB on a 96-well plate and was incubated with equal volumes of bacterial inoculum overnight at 37°C. Wells containing only media were used as negative controls, and wells containing only bacteria were used as positive controls. Antibacterial activity was measured by the MIC, or the lowest concentration of agent required to inhibit visible bacterial growth. Turbidity was confirmed with a Molecular Devices (United States) EMax Plus microplate reader at a wavelength of 590 nm.
Data set [5] concerns E. coli. The procedure: as §1
The antibiotic or compound was serially diluted 2-fold in CAMHB on a 96-well plate and was incubated with equal volumes of bacterial inoculum overnight at 37°C. Wells containing only media were used as negative controls, and wells containing only bacteria were used as positive controls. Antibacterial activity was measured by the MIC, or the lowest concentration of agent required to inhibit visible bacterial growth.

For data set [6], the system named is SK-N-SH. The data set can be described thus: Cell viability assay (PrestoBlue). The data set is classed as cell-based. Particulars: SK-N-SH. As to the method:
(§3) Kidney cell lines, HK-2 (CRL-2190) and RPTEC/TERT1 (CRL-4031), and neural cell lines, U-87 MG (HTB-14) and SK-N-SH (HTB-11), were obtained from American Type Culture Collection (ATCC). HK-2 cells were cultured in T75 flasks with keratinocyte serum-free medium supplemented with bovine pituitary extract, human epidermal growth factor, and 2.5% FBS. RPTEC/TERT1 cells were cultured in T75 flasks with Dulbecco’s modified Eagle’s medium:F12 supplemented with the ATCC (United States) human telomerase reverse transcriptase immortalized RPTEC growth kit, G418 (0.1 mg/mL final concentration), and 2% FBS. Both U-87 MG and SK-N-SH cells were cultured in minimal essential media supplemented with 10% FBS. The cells were incubated in a humidified atmosphere at 5% CO2 and at 37°C.
(§4) The cytotoxicity of the compounds toward the mammalian cell lines was assessed using the cell viability assay protocols as previously described ([29]). Designated wells in 96-well plates were seeded with HK-2 (5,000 cells), RPTEC/TERT1 (8,000 cells), U-87 MG (7,000 cells), or SK-N-SH (8,000 cells) in 50 µL. Blank wells received an identical volume of only media. […] Subsequently, PrestoBlue reagent (Invitrogen, United States) was added to the wells to a final concentration of 10% (vol/vol), and the plate was incubated for an additional 1 h. Fluorescence was measured with a SpectraMax M2 plate reader (Molecular Devices, United States), at excitation and emission wavelengths of 560 and 590 nm, respectively. Values from the blank wells were subtracted from the corresponding wells containing cells. The cell viability relative to the controls with vehicle was calculated and presented as mean ± standard deviation of at least two experiments with five replicates each. CC50 values were obtained using GraphPad Prism (version 10.4.1) by non-linear regression (four-parameter logistic fit).

Data set [7] relates to U-87 MG. As to the kind of experiment: Cell viability assay (PrestoBlue). The data set is classed as cell-based. The following applies: U-87 MG. As to the method:
as §3, §4

For data set [8] the following is noted: cited from earlier work. As to the method: Although the amphiphilic nature of polymyxins is crucial to permeabilize the outer membrane, this property can also be detrimental as it increases binding affinity to serum proteins, thereby limiting bioavailability ([50]). […] To assess the impact of serum binding on antibiotic potentiation, FBS was added to the media to simulate these conditions (Table 10). Zoliflodacin potentiation by compound 1 was diminished with increasing ...

Where two headings read alike, the source gives them in different places.

The term MIC denotes the least concentration at which growth counts as inhibited. As for Polymyxin B [PMB], the MIC in data set [1] (E. cloacae 117029) was 0.5 µg/mL; in data set [1] (E. cloacae 121887, colistin-resistant) it was more than 128 µg/mL; in data set [2] (K. pneumoniae 113250, colistin-resistant), 128 µg/mL; in data set [2] (K. pneumoniae 116381), 1 µg/mL; in data set [3] (P. aeruginosa 259-96916, clinical isolate) it was not above 0.063 µg/mL; in data set [3] (P. aeruginosa 262-101856, clinical isolate) it was 0.5 µg/mL. Also, the MIC was 2 µg/mL in data set [3] (P. aeruginosa 264-104354, clinical isolate); more than 128 µg/mL in data set [3] (P. aeruginosa 101243, colistin-resistant); 64 µg/mL in data set [3] (P. aeruginosa 114228, colistin-resistant); 1 µg/mL in data set [3] (P. aeruginosa PAO1, wild-type, CAMHB, overnight 37°C); 8 µg/mL in data set [4] (A. baumannii 92247, colistin-resistant); 1 µg/mL in data set [4] (A. baumannii 110193). Moreover, the MIC in data set [4] (A. baumannii AB027) is 0.25 µg/mL; in data set [4] (A. baumannii ATCC 17978, wild-type), 2 µg/mL; in data set [5] (E. coli 94393, colistin-resistant), 4 µg/mL; in data set [5] (E. coli 94474, colistin-resistant) it was 16 µg/mL; in data set [5] (E. coli 107115), 0.25 µg/mL; in data set [5] (E. coli 131629), not above 0.25 µg/mL. The MIC in data set [5] (E. coli ATCC 25922, wild-type) is 0.5 µg/mL. Moreover, the “toxicity” value in data set [6] and in data set [7] was “lack of toxicity” each time. The mean protein binding in data set [8] is reported as more than 90%. For the same substance, the median protein binding in data set [8] is listed as 58%.

Values taken from paper PMC12587545, “Noncytotoxic polymyxin derivatives enhance antibiotic action against multidrug-resistant Gram-negative bacteria” (Antimicrobial Agents and Chemotherapy, 2025).
